Values quoted from earlier work as cited in US11471478B2, “Use of cyclodextrins in diseases and disorders involving phospholipid dysregulation” (priority 2017, dated 2022).
Marks after values point to notes of the source that are not given here.

How the values were obtained:
BBB = conditions: cited from earlier work
keratinocytes = conditions: cited from earlier work
rats = conditions: rat, in vivo, iv; cited from earlier work
mice/rats = conditions: in vivo; cited from earlier work
[1] = i.v.; cited from earlier work
whole blood = conditions: cited from earlier work
[2] = tested on: fibroblasts of lysosomal storage diseases; conditions: about 6 mM α-CD, about 8 mM HP-β-CD; cited from earlier work
[3] = tested on: HeLa cells transfected with α-synuclein; conditions: 20 mM for 1 hr; cited from earlier work
[4] = target: T1, breast cancer resistance protein (BCRP) (Homo sapiens, UniProt Q9UNQ0); conditions: cited from earlier work
T1 sequence (Q9UNQ0 1-655): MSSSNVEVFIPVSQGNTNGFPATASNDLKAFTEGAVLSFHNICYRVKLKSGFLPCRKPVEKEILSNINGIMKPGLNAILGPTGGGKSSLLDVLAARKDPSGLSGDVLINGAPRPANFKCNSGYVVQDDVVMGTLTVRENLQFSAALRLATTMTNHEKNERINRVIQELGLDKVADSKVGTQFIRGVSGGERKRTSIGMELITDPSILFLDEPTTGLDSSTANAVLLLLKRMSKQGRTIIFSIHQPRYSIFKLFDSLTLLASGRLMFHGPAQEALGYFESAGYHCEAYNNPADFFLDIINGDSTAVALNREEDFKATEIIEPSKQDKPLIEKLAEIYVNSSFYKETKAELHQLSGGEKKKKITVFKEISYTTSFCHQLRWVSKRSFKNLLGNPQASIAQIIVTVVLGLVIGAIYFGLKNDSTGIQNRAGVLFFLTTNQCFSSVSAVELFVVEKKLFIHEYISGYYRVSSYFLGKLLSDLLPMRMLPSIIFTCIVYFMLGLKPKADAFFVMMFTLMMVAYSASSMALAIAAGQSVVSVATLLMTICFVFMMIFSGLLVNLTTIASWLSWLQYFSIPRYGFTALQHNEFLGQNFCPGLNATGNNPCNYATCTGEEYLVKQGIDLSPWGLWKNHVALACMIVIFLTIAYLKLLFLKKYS

CN1CCCC1c1cccnc1 (centres unmarked) [nicotine]
transported through the BBB (BBB; after 2 h of incubation, in vitro): 96%

OC[C@H]1O[C@@H]2O[C@H]3[C@H](O)[C@@H](O)[C@@H](O[C@H]4[C@H](O)[C@@H](O)[C@@H](O[C@H]5[C@H](O)[C@@H](O)[C@@H](O[C@H]6[C@H](O)[C@@H](O)[C@@H](O[C@H]7[C@H](O)[C@@H](O)[C@@H](O[C@H]8[C@H](O)[C@@H](O)[C@@H](O[C@H]1[C@H](O)[C@H]2O)O[C@@H]8CO)O[C@@H]7CO)O[C@@H]6CO)O[C@@H]5CO)O[C@@H]4CO)O[C@@H]3CO [β-CD, beta-cyclodextrin, reference compound]
caspase-dependent apoptotic cell death (keratinocytes): induces caspase-dependent apoptotic cell death | i.v. toxicity, 1 g/kg daily (rats): all died ≤ 4 d | LD50 i.v./i.p. in mice/rats (mice/rats): 0.8/1.0 ^4) g/kg | half-life (t1/2) after i.v. in rats [1]: 20 min | Transport across BBB (BBB; 2 h, 1 mM): 26.7 (1 mM) % | toxicity on the BBB model (BBB): similarly safe | whole blood TD50 (whole blood): 3.6 mM/L

methyl-β-cyclodextrin [M-β-CD]
reduction of lysosomal storage [2]: most effective cyclodextrin | co-location of α-synuclein with the cell membrane [3]: dramatically reduced | decrease in activity of BCRP [4]: 40%
